From patent publication US7196199B2, “Phenoxypropylamine compounds” (Mitsubishi Pharma Corporation, priority 1999, dated 2007)
Where a name gives a salt, the structure may show the parent alone. Read-outs that look alike come from different tables or passages of the source. Blank lines part the entries; values can stand above or below the molecule they belong to.

Tests used:
5-HT transporter = molecular target: T1, 5-HT transporter (Rattus norvegicus, UniProt P31652); test: 5-HT transporter binding test
T1 construct: Rat brain cortex was homogenized using Polytron; from tissue; host or cells: rat brain cortex membranes
Method: Rat brain cortex was homogenized using Polytron in ice-cooled 50 mmol/L Tris-HCl buffer (pH 7.4). After centrifugation at 1000×g and 4° C. for 10 min, the supernatant was transferred to a different centrifugation tube. This was centrifuged at 40000×g and 4° C. for 20 min, and 50 mmol/L Tris-HCl buffer (pH 7.4) was added to the sediment to give a suspension. This was incubated at 37° C. for 10 min, centrifuged at 40000×g and 4° C. for 20 min, and suspended in 50 mmol/L Tris-HCl buffer (pH 7.4) (diluted 100-fold of brain wet weight) containing 120 mmol/L NaCl and 5 mmol/L KCl, which was used as a membrane solution. For binding inhibition test, it was reacted with (^3H) paroxetine prepared to the final concentration of 0.2 nmol/L in a plastic test tube at 25° C. for 90 min. For total binding, a solvent was used and for nonspecific binding, fluvoxamine having a final concentration of 10 μmol/L was used.
Using a cell harvester, the reaction mixture was filtered through a GF/B glass filter treated with 0.1% polyethyleneimine to stop the reaction and washed 3 times with 3 mL of ice-cooled 50 mmol/L Tris-HCl buffer (pH 7.4). The radioactivity was measured using a β plate.

5-HT1A receptor [1] = molecular target: T2, 5-HT1A receptor (Rattus norvegicus, UniProt P19327); test: 5-HT1A receptor binding test
T2 sequence (P19327 1-422): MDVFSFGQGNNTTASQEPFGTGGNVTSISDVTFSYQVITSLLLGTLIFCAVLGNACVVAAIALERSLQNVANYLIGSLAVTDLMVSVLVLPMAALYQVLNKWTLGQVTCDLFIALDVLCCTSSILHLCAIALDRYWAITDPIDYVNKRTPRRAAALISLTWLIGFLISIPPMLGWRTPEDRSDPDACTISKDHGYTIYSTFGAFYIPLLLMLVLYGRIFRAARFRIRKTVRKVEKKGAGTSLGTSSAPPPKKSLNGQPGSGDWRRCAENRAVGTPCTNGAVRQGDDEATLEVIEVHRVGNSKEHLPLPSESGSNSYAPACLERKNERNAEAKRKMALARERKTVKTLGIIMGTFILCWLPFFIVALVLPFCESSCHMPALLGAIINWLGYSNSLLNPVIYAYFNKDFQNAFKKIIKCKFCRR
Method: The experiment was conducted according to the method of M. D. Hall et al (J. Neurochem. 44, 1685–1696 (1985)).
Cryopreserved rat hippocampus was homogenized in a 20-fold wet weight amount of 50 mM Tris-HCl buffer (pH 7.4), and the homogenate was centrifuged at 500×g for 10 min. The supernatant was centrifuged at 40000×g for 10 min and the sediment was incubated at 37° C. for 10 min, which was followed by centrifugation at 40000×g for 10 min. To the sediment was added a 20-fold amount of 50 mM Tris-HCl buffer (pH 7.4) and the mixture was homogenized, which was followed by centrifugation again at 40000×g for 10 min. 50 mM Tris-HCl buffer (pH 7.4, 100-fold volume) containing 1 mM MnCl2 was added to the sediment and the mixture was homogenized, which was used as a membrane solution. To a 96 well plate were successively added a test solution ([…]), (^3H)-8-OH-DPAT ((±)-8-hydroxy-2-(DL-N-propylamino)tetraline, Sigma, lot No. 57H4131) solution (final concentration 2 nM, […]) and the membrane solution (0.45 ml) preincubated at 37° C., and incubated at 37° C. for 12 min. After completion, the reaction mixture was filtered through a GF/B glass filter and the filter was washed 5 times with 50 mM Tris-HCl buffer (pH 7.4). The radioactivity left on the filter was measured with a Top Count. For total binding measurement, 0.005N hydrochloric acid ([…]) was used, and for the measurement of nonspecific binding, a test solution containing WAY-100635 (final concentration […]) instead of the test substance was used. The total binding and nonspecific binding were measured in quadruplicate, and the test substance was measured in duplicate.
The IC50 value was calculated by two-point interpolation and Ki value was calculated according to the following equation using Kd value obtained from each measurement. Ki=IC50/(1+C/Kd)
IC50: concentration of 50% binding inhibition
C: concentration of ligand

5-HT1A receptor [2] = molecular target: T2, 5-HT1A receptor; test: Electrophysical evaluation of agonist/antagonist of 5-HT1A receptor (nystatin perforated patch clamp, dorsal raphe nuclei cell); format: cell-based; set-up: The isolated nerve cell (dorsal raphe nuclei cell) was subjected to nystatin perforated patch clamp method; endogenous in cells; host or cells: acutely dissociated dorsal raphe nuclei neurons of 2-week-old male Wistar rat; conditions: 10^−7 mol/L, isolated rat dorsal raphe nuclei cell; for antagonistic action (% of control) of the test substance on the 8-OH-DPAT induced inward K+ current: 8-OH-DPAT 10^−7 mol/L
Method: The experiment followed the method of Katayama et al (Brain Res.; 745, 283–292, 1997).
The brain of 2-week-old male Wistar rat was extracted, and a brain thin section (thickness 350 μm) containing dorsal raphe nuclei was prepared using a microslicer. The brain thin section was treated in Ringer's solution containing pronase (0.4 mg/mL) and protease type X (0.25 mg/mL) at 30° C. for 25 min and 15 min, respectively, and the dorsal raphe nuclei region was micropunched out. The brain thin section punched out was subjected to pipetting in a culture dish filled with the Ringer's solution to isolate the nerve cell. The isolated nerve cell (dorsal raphe nuclei cell) was subjected to nystatin perforated patch clamp method (Akaike & Harata, Jpn. J. Physiol.; 44, 433–437, 1994) and the inward K^+ current induced by the test substance and the like was measured under membrane voltage-clamp condition (VH=−60 mV). For the measurement of the inward K^+ current via the 5-HT1A receptor, an extracellular solution and a patch pipette solution having the following compositions were used simultaneously. • extracellular solution (mmol/L): NaCl, 135; KCl, 20; MgCl2, 1; CaCl2, 2; D-glucose, 10; HEPES, 10; tetrodotoxin, 3×10^−4; LaCl3, 10 • patch pipette solution (mmol/L): KCl, 150; HEPES, 10
To the above-mentioned patch pipette solution was added nystatin. (Sigma, Lot No. 33H0762) to the final concentration of 75 μg/mL before the electric measurement.
The current response was measured with a voltage clamp amplifier (List Medical, L/M-EPC7), and the obtained results were recorded on a chart of a recticorder (Nihondenki Sanei, RECTIHORIZ-8K), digitized by a PCM recording device (NF electric Instruments, RP-882) and videotaped by a VCR (Panasonic, NV-G40).
The administration of the test substance and the like followed a Y-tube method (Murase et al., Brain Res.; 525, 84–91, 1990).
First, 8-OH-DPAT (10^−7 mol/L) was administered to the isolated nerve cell (dorsal raphe nuclei cell) obtained above, and the level of the inward K^+ current response was measured.
8-OH-DPAT was washed out for 2 min from the above-mentioned cells and the test substance and pindolol (reference substance which is an antagonist) were administered for 1 min, and the level of the inward K^+ current response by each of them was measured. From immediately after administration of the test substance or the reference substance, a mixture of 8-OH-DPAT ([…]) and the test substance or reference substance was administered, and the level of the induced inward K^+ current response was measured. The measurement results and the level of the current response in the same cell by 8-OH-DPAT alone were compared, based on which the antagonistic action on the 8-OH-DPAT induction current was considered. Every current response was expressed upon standardizing according to the following calculation equation based on the level of the 8-OH-DPAT (10^−7 mol/L) induction current in the same cell.
The inward K^+ current response inducing action (5-HT1A agonistic action) by the test substance alone was determined from the following equation. inward K^+ current response inducing action (%) by test substance alone=(ITD÷IDPAT)×100 • ITD: level of inward K^+ current response by test substance alone • IDPAT: level of 8-OH-DPAT (10^−7 mol/L) induced inward K^+ current in the same cell
The suppressive effect (5-HT1A antagonistic action) on the 8-OH-DPAT induced inward K^+ current by the test substance was determined according to the following equation. antagonistic action of test substance on 8-OH-DPAT induced inward K^+ current (% of control)=(IMIX÷IDPAT)×100
IMIX: level of 8-OH-DPAT (10^−7 mol/L) induced inward K^+ current in the presence of test substance

[3] = rat brain cortex membrane, (3H) paroxetine 0.2 nmol/L, read-out: 5-HT transporter binding Ki value
[4] = rat hippocampus membrane, (3H)-8-OH-DPAT 2 nM, read-out: 5-HT1A receptor binding Ki value

T1 sequence (P31652 whole entry): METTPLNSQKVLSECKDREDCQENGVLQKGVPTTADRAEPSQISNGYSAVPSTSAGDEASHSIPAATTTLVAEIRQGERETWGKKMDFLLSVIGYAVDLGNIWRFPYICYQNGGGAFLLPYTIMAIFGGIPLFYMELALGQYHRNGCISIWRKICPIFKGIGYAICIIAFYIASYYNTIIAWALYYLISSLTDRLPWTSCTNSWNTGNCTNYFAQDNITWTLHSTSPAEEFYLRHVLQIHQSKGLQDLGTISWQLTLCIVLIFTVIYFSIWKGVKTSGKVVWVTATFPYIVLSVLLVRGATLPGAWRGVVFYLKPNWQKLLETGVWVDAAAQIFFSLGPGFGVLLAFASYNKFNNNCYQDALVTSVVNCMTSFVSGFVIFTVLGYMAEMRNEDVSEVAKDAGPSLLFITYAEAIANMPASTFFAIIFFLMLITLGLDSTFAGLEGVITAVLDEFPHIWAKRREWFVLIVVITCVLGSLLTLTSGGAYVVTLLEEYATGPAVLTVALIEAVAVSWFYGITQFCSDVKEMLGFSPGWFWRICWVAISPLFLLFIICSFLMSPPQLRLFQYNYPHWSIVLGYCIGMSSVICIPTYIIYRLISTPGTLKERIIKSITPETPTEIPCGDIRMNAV

Compound: Cc1nnc(-c2cc3c(OC[C@@H](O)CN4CC=C(c5ccc6ccoc6c5)CC4)cccc3o2)o1.Cl
- melting point: 135 to 138 °C

Compound: Cc1nnc(-c2cc3c(OC[C@@H](O)CN4CCC(c5ccc6c(c5)CCCS6)CC4)cccc3o2)o1 (as salt: hydrochloride)
- melting point: 223 to 225 °C

Compound: Cc1nnc(-c2cc3c(OC[C@@H](O)CN4CCC(c5ccc(Cl)c(C(F)(F)F)c5)CC4)cccc3o2)o1 (as salt: hydrochloride) [Example 234, (S)-1-(4-(4-chloro-3-trifluoromethylphenyl)piperidino)-3-(2-(5-methyl-1,3,4-oxadiazol-2-yl)benzo(b)furan-4-yloxy)-2-propanol hydrochloride]
- melting point: 222 to 224 °C

Compound: CON(C)C(=O)c1cc2c(OC[C@@H](O)CN3CCC(c4ccc5ccccc5c4)CC3)cccc2o1 [Example 6, (S)-4-(2-hydroxy-3-(4-(naphthalen-2-yl)piperidino)propyloxy)-N-methoxy-N-methylbenzo(b)furan-2-carboxamide]
- Ki (5-HT transporter; [3]): 1.1 nM
- Ki (5-HT1A receptor [1]; [4]): 2.3 nM
- antagonistic action (% of control) of the test substance on the 8-OH-DPAT induced inward K+ current (5-HT1A receptor [2]): almost nil
- agonist/antagonist character at 5-HT1A receptor (5-HT1A receptor [2]): silent antagonists
- inward K+ current inducing action (%) by the test substance alone (5-HT1A receptor [2]): almost nil

Compound: Cc1nnc(-c2cc3c(OC[C@@H](O)CN4CC=C(c5ccc6occc6c5)CC4)cccc3o2)o1 [Example 238, (S)-1-(4-(benzo(b)furan-5-yl)-5,6-dihydro-2H-pyridin-1-yl)-3-(2-(5-methyl-1,3,4-oxadiazol-2-yl)benzo(b)furan-4-yloxy)-2-propanol]
- melting point: 168 to 170 °C

Compound: O[C@H](COc1cccc2[nH]ccc12)CN1CCC(O)(c2ccc3ccccc3c2)CC1 [compound for reference, (S)-1-(4-indolyloxy)-3-[4-hydroxy-4-(2-naphthyl)piperidino]propan-2-ol, reference compound]
- Ki (5-HT transporter): 55 nM
- Ki (5-HT1A receptor [1]): 0.16 nM
- agonist/antagonist character at 5-HT1A receptor (5-HT1A receptor [2]): partial agonist

Next, values leading:

- melting point: 218 to 220 °C
Compound: COc1ccc(C2CCN(C[C@H](O)COc3cccc4oc(-c5nnc(C)o5)cc34)CC2)cc1Cl.Cl

- melting point: 184 to 186 °C
Compound: Cc1nnc(-c2cc3c(OC[C@@H](O)CN4CCC(c5ccc(Cl)c(C)c5)CC4)cccc3o2)o1.Cl

- melting point: 139 to 141 °C
Compound: Cc1nnc(-c2cc3c(OC[C@@H](O)CN4CCC(c5ccc(Cl)c(F)c5)CC4)cccc3o2)o1.Cl

- melting point: 128 to 130 °C
Compound: C=C(C)c1nnc(-c2cc3c(OC[C@@H](O)CN4CCC(c5ccc6c(c5)OCO6)CC4)cccc3o2)o1.Cl

- melting point: 188 to 190 °C
Compound: Cc1nnc(-c2cc3c(OC[C@@H](O)CN4CCC(c5ccc(C)c(Cl)c5)CC4)cccc3o2)o1 (as salt: hydrochloride)

- Ki (5-HT transporter; [3]): 0.32 nM
- Ki (5-HT1A receptor [1]; [4]): 0.75 nM
- antagonistic action (% of control) of the test substance on the 8-OH-DPAT induced inward K+ current (5-HT1A receptor [2]): almost nil
- agonist/antagonist character at 5-HT1A receptor (5-HT1A receptor [2]): silent antagonists
- inward K+ current inducing action (%) by the test substance alone (5-HT1A receptor [2]): almost nil
Compound: Cc1nnc(-c2cc3c(OC[C@@H](O)CN4CCC(c5ccc(Cl)c(Cl)c5)CC4)cccc3o2)o1 [Example 88, (S)-1-(4-(3,4-dichlorophenyl)piperidino)-3-(2-(5-methyl-1,3,4-oxadiazol-2-yl)benzo(b)furan-4-yloxy)-2-propanol hydrochloride 1/4 hydrate]

- Ki (5-HT transporter; [3]): 0.18 nM
- Ki (5-HT1A receptor [1]; [4]): 0.37 nM
- antagonistic action (% of control) of the test substance on the 8-OH-DPAT induced inward K+ current (5-HT1A receptor [2]): almost nil
- agonist/antagonist character at 5-HT1A receptor (5-HT1A receptor [2]): silent antagonists
- inward K+ current inducing action (%) by the test substance alone (5-HT1A receptor [2]): almost nil
Compound: OCc1nnc(-c2cc3c(OC[C@@H](O)CN4CCC(c5ccc(Cl)c(Cl)c5)CC4)cccc3o2)o1 [Example 136, (S)-3-(4-(3,4-dichlorophenyl)piperidino)-1-(2-(5-hydroxymethyl-1,3,4-oxadiazol-2-yl)benzo(b)furan-4-yloxy)-2-propanol]

- Ki (5-HT transporter; [3]): 1.6 nM
- Ki (5-HT1A receptor [1]; [4]): 0.68 nM
- antagonistic action (% of control) of the test substance on the 8-OH-DPAT induced inward K+ current (5-HT1A receptor [2]): almost nil
- agonist/antagonist character at 5-HT1A receptor (5-HT1A receptor [2]): silent antagonists
- inward K+ current inducing action (%) by the test substance alone (5-HT1A receptor [2]): almost nil
Compound: CC(C)c1nnc(-c2cc3c(OC[C@@H](O)CN4CCC(c5ccc6c(c5)OCO6)CC4)cccc3o2)o1 [Example 138, (S)-1-(2-(5-(1-methylethyl)-1,3,4-oxadiazol-2-yl)benzo(b)furan-4-yloxy)-3-(4-(3,4-methylenedioxyphenyl)piperidino)-2-propanol hydrochloride]
